Consider three compounds from patent publication US11567085B2, “Photo-cleavable surfactants” (Wisconsin Alumni Research Foundation, priority 2018, dated 2023).

One data set has as its system cardiac tissue proteins. Description: Surfactant-aided protein extraction from insoluble cardiac tissue pellet, SDS-PAGE and protein assay. Conditions: 0.5% surfactant in 25 mM NH4HCO3; SDS-PAGE and Bradford protein assay (FIG. 16). The method, then:
Data presented were based on three independent experiments (n=3). Error bars represent standard error of the mean.
Protein extraction from cardiac tissue. The frozen tissue samples (˜500 mg) were cut into small pieces and washed with PBS buffer containing protease inhibitors and reducing agent (5 mM DTT, 1 mM PMSF, 1× protease inhibitor cocktail). […] The homogenate was centrifuged at 211,750×g using Beckman Ultracentrifuge and a Ti-80 rotor for 1 h. The supernatant after the first HEPES extraction was removed and saved as “E1” extraction. The HEPES extraction was repeated on the resulting pellet and saved as “E2”. After the second HEPES extraction, the tissue pellet was suspended in 25 mM NH4HCO3 and evenly divided into smaller aliquots. In one aliquot, 25 mM NH4HCO3 buffer with no surfactant (NS) was used in a 1:1 ratio (homogenate:buffer) and labeled as “E3”. In the other aliquots, surfactants (1% in 25 mM NH4HCO3) were individually added to the other aliquots in a 1:1 ratio (homogenate:surfactant) and labeled as “E3” following incubation and centrifugation.

The format of data set [1] is physicochemical. The method, then:
Several degradation conditions were compared (i.e., organic vs. aqueous solutions in the presence or absence of acid and reducing agents) to determine the most favorable conditions (FIG. 11).
UV-Vis degradation. […] The samples were diluted to a final volume of 1 mL in H2O. A UV-Vis spectrum was taken from each sample with a Varian Cary 50 UV-Visible spectrophotometer (background correction, medium scan rate, 600-200 nm).

With `CCCCCCCCCCCC1(C)OCC(COCCCS(=O)(=O)[O-])O1.[Na+]` (stereo not drawn) [RG], the protein solubilization ability result in the data set with cardiac tissue proteins is recorded as “drastically better protein solubilization ability”.
Turning to `CCCCCCCCCCC(OC(=O)NCCCS(=O)(=O)[O-])c1ccco1.[Na+]` (stereo not drawn) [PM], in the data set on cardiac tissue proteins, the protein solubilization ability result is recorded as “drastically better protein solubilization ability”.
Take 4-hexylphenylazosulfonate: in data set [1], the “degradation time upon UV irradiation” value fell in the range of 30 to 150 s.
